# Measured values reported in PMC5773487, “Harnessing insulin- and leptin-induced oxidation of PTP1B for therapeutic development” (Nature Communications, 2018).
# “Also recorded” adds a separate entry of the source.
# T1: PTP1B-OX (Homo sapiens, UniProt P18031)
# T1 construct: Purified PTP1B (1–321) (100 nM) was mixed with increasing concentrations of H2O2; 6xHis (C); made in house; host or cells: E. coli BL21 (DE3)-RIL
# T1 sequence (P18031 1-321): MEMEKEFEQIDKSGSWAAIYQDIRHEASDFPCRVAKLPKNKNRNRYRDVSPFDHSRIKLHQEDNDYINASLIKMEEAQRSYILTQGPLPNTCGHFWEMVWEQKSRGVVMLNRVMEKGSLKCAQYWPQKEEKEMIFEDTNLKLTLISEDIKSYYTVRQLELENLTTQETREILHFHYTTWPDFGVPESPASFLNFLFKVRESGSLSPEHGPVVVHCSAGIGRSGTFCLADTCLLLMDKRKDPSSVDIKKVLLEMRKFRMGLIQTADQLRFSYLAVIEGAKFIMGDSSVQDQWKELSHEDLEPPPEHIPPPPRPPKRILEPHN
# T2: reduced PTP1B (Homo sapiens, UniProt P18031)
# T2 construct: Purified PTP1B (1–321) (100 nM) was mixed with increasing concentrations of H2O2; 6xHis (C); made in house; host or cells: E. coli BL21 (DE3)-RIL
# T2 sequence (P18031 1-321): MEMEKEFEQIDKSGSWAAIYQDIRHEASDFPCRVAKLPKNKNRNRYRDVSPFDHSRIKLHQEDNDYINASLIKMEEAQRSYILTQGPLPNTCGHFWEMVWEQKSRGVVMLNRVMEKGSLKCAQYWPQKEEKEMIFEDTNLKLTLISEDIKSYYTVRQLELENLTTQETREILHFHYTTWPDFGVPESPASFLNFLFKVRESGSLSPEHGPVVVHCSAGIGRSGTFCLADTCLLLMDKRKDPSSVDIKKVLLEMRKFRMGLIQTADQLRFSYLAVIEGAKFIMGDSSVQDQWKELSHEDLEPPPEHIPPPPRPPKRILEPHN
# Tests used:
# [1] = target: T1, PTP1B-OX; assay: reduction and reactivation of reversibly oxidized PTP1B by TCEP, DiFMUP substrate; assay type: biochemical; settings: for inhibition of reduction and reactivation (stabilization) of PTP1B-OX: in words
# Protocol: Therefore, our approach has been to adapt this assay, which we used to screen for conformation-sensor scFvs[17], now to screen for small molecules that act through a similar mechanism. Our primary screening assay tested the ability of small molecule inhibitors to antagonize the reduction and reactivation of the oxidized conformation of PTP1B, similar to that of scFv45 (Fig. 4a).
# (§1) Purified PTP1B (1–321) (100 nM) was mixed with increasing concentrations of H2O2 (0.05–100 mM) in phosphatase assay buffer (50 mM HEPES, pH 7.0, 100 mM NaCl, 0.1% BSA) at room temperature for 5 min. From this reaction mixture PTP1B (10 nM) was used to monitor phosphatase activity using DiFMUP as the substrate, with or without 5 mM TCEP. Activity of each sample was compared to that of the untreated PTP1B in the presence of 5 mM TCEP.
# To screen the LOPAC library against PTP1B-OX, 0.5 μl of 1 mM compound in 100% DMSO was added to 384-well plates, resulting in a final compound concentration of 10 μM for the primary screen. Recombinant PTP1B (100 nM) was reversibly oxidized and inactivated with H2O2 (4 mM). The phosphatase activity was restored by a quick buffer exchange and addition of reducing agent (TCEP). PTP1B-OX was incubated with LOPAC compounds (10 μM) in the assay buffer (50 mM HEPES pH 7.0, 100 mM NaCl, 0.005% Tween, 2 mM EDTA) and the effect of individual compound on stabilizing the reversibly oxidized conformation was assessed by the phosphatase assay under reducing conditions using DiFMUP as substrate. scFv45 was used as positive control.
# [2] = target: T2, reduced PTP1B; assay: phosphatase activity of reduced PTP1B, DiFMUP substrate; assay type: biochemical
# Protocol: Fig. 4 Identification and characterization of small molecules that mimic the effect of scFv45. a Reversibly oxidized PTP1B (PTP1B-OX) was generated by incubation with H2O2 in vitro, desalted, then assayed (20 nM) in the presence and absence of individual members of the LOPAC library. In the right panel, each dot represents an activity measurement. […] Data are representative of at least two independent experiments (n = 2). b Increasing concentration of sanguinarine was tested against reduced (circle) and oxidized (square) forms of PTP1B, using DiFMUP as substrate. c Increasing concentration of levamisole was tested against reduced (circle) and oxidized (square) PTP1B, using DiFMUP as substrate. d PTP1B-OX (200 nM) was incubated with sanguinarine (25 µM) for 5 min and the complex was diluted 100-fold and the activity was monitored for 120 min continuously. e PTP1B-OX (200 nM) was incubated with levamisole (40 µM) for 5 min and the complex was diluted 100-fold and the activity was monitored for 120 min continuously. f Increasing concentration of chelerythrine, an analog of sanguinarine, was tested against reduced (circle) and oxidized (square) forms of PTP1B, using DiFMUP as substrate. […] Individual data points represent the mean obtained from three separate experiments (n = 3; b–g)
# as §1
molecule,measurement,setting,value
COc1ccc2c(c[n+](C)c3c4cc5c(cc4ccc23)OCO5)c1OC [chelerythrine],IC50 relative to sanguinarine,[1],fivefold lower
same,preference for PTP1B-OX over reduced PTP1B,[1],at least 100 fold
same,Ki,[1]; DiFMUP substrate,5 µM
same,IC50,"[1]; wild-type PTP1B-OX, reactivation by TCEP, DiFMUP substrate, read-out: IC50 against PTP1B-OX",5 µM
same,inhibition of the reduced form of PTP1B,[2],no apparent inhibition; also recorded: did not inhibit
CN1CCc2cc3c(cc2C(=O)Cc2ccc4c(c2C1)OCO4)OCO3 [protopine],inhibition of reduction and reactivation (stabilization) of PTP1B-OX,[1],did not inhibit; also recorded: ineffective; also recorded: did not stabilize
same,inhibition of the reduced form of PTP1B,[2],did not inhibit; also recorded: ineffective
"scFv45: recombinant conformation-sensor single-chain variable fragment antibody recognizing oxidized PTP1B (antibody, V domains shown) VH: TVTLDESGGGLQAPGGALSLVCKASGFTFSSYDMGWIRQAPGKGLEYVAGITDNGRYASYGSAVDGRATISRDNGQSSVRLQLNNLRAEDTGTYYCARDDGSGWTGNSIDAWGHGTEVIVSE VL: ALTQPSSVSANPGGTVKITCSGSSSAYGYGWYQQKSPGSAPVTVIYNNNKRPSNIPSRFSGSKSGSTGTLTITGVQAEDEAVYFCGSEDSSTDAIFGAGTTLTVL",inhibition of reduction and reactivation (stabilization) of PTP1B-OX,[1],impaired in a dose-dependent manner
